Results on four compounds are retold here after patent US11535679B2, “Bispecific antibody against CD3 and CD20 in combination therapy for treating follicular lymphoma” (GENMAB A/S, priority 2020, dated 2022).

One data set addresses T1, CD20 (Homo sapiens, UniProt P11836).
T1 sequence (P11836 1-297): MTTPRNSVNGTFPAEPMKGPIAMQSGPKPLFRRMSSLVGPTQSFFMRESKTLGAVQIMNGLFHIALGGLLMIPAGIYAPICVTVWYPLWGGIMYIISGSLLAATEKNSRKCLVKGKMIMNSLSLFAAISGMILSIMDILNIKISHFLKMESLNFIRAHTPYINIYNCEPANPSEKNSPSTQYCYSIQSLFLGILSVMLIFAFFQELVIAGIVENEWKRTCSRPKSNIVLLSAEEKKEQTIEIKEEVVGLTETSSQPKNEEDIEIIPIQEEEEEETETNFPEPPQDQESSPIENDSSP
As to conditions: rituximab versus IgG1-CD20; different epitopes; cited from earlier work.

The subject of a further data set is Raji cells. The format is cell-based, human. As to conditions: bendamustine alone, 0-20 μM, 48 hours. The method, then: (§1) Briefly, Human Burkitt lymphoma (Raji [ATCC, cat. no. CCL-86]) and DLBCL (SU-DHL-4 [Deutsche Sammlung von Mikroorganismen and Zellkulturen—DSMZ, cat. no. ACC-495]) cell lines were used as target cells. Cells were cultured in culture medium (RPMI 1640 with HEPES and L-Glutamine supplemented with 10% heat-inactivated donor bovine serum with iron, and 1% [v/v] penicillin/streptomycin) to which 2 mM L-glutamine, and 1 mM sodium pyruvate were added, at 37° C., 5% CO2. T cells, which were isolated from human healthy donor buffy coats by negative selection using the RosetteSep™ Human T Cell Enrichment Cocktail (Stemcell Technologies) followed by density centrifugation over a Ficoll gradient, both according to the manufacturer's instructions, were used as effector cells. Isolated cells were washed twice in phosphate buffered saline (PBS) and counted using acridine orange/propidium iodide (AO/PI) viability staining solution (Nexcelom Bioscience) on a Cellometer® Auto 2000 Cell Viability Counter. […] B-cell viability and T-cell activation were measured by flow cytometry (count of CD22-positive cells; expression of the activation markers CD69, CD25, and CD107 [LAMP-1] on CD4+ and CD8+ T cells). The percentage cytotoxicity was calculated as follows: % cytotoxicity=100−([cell countsample/cell countno antibody]×100%)

In another data set the test system is SU-DHL-4 cells. It counts as cell-based, human. As to conditions: bendamustine alone, 0-20 μM, 48 hours. As to the method: as §1
Data set [1] has as its system T cells in presence of SU-DHL-4 cells. As to the kind of experiment: In vitro T-cell activation assay, T cells incubated with SU-DHL-4 cells. It counts as cell-based, human. As to conditions: SU-DHL-4 target cells. As to the method: (§2) Briefly, Human Burkitt lymphoma (Raji [ATCC, cat. no. CCL-86]) and DLBCL (SU-DHL-4 [Deutsche Sammlung von Mikroorganismen and Zellkulturen—DSMZ, cat. no. ACC-495]) cell lines were used as target cells. Cells were cultured in culture medium (RPMI 1640 with HEPES and L-Glutamine supplemented with 10% heat-inactivated donor bovine serum with iron, and 1% [v/v] penicillin/streptomycin) to which 2 mM L-glutamine, and 1 mM sodium pyruvate were added, at 37° C., 5% CO2. T cells, which were isolated from human healthy donor buffy coats by negative selection using the RosetteSep™ Human T Cell Enrichment Cocktail (Stemcell Technologies) followed by density centrifugation over a Ficoll gradient, both according to the manufacturer's instructions, were used as effector cells. Isolated cells were washed twice in phosphate buffered saline (PBS) and counted using acridine orange/propidium iodide (AO/PI) viability staining solution (Nexcelom Bioscience) on a Cellometer® Auto 2000 Cell Viability Counter. T cells (100,000 cells/well) were incubated with Raji or SU-DHL-4 cells (50,000 cells/well) in culture medium in the presence of epcoritamab (0.033 pg/mL-333 ng/mL) and bendamustine (0-20 μM) at 37° C., 5% CO2 for 48 hours. B-cell viability and T-cell activation were measured by flow cytometry (count of CD22-positive cells; expression of the activation markers CD69, CD25, and CD107 [LAMP-1] on CD4+ and CD8+ T cells). The percentage cytotoxicity was calculated as follows: % cytotoxicity=100−([cell countsample/cell countno antibody]×100%)

The subject of data set [2] is primary DLBCL and follicular lymphoma patient biopsies. As to conditions: biopsies taken a certain time after anti-CD20 antibody administration; cited from earlier work.
In data set [3] the test system is CD20-expressing Raji-luc tumor cells. As to conditions: NOD-SCID mice injected with Raji-luc tumor cells and PBMCs; even in presence of excess IgG1-RTX-FEAR; cited from earlier work.
The test system of a further data set is R/R B-NHL patients. As to the kind of experiment: Ongoing clinical trial of epcoritamab monotherapy (NCT03625037). As to conditions: preliminary data. It counts as in vivo, human. An excerpt:
Epcoritamab as monotherapy is currently in a clinical trial for the treatment of relapsed/refractory (R/R) B-NHL (ClinicalTrials.gov Identifier: NCT03625037).

For data set [4], the system named is T cells in presence of Raji cells. Briefly: In vitro T-cell activation assay, T cells incubated with Raji cells. The format is cell-based, human. As to conditions: Raji target cells. As to the method:
as §2

For another data set, the system named is follicular lymphoma. As to conditions: double-refractory cases; cited from earlier work.
Setting [5] is: bendamustine 0-20 μM, data not shown.
Where [6] appears, read: epcoritamab 0.033 pg/mL-333 ng/mL, 48 hours.

Take “IgG1-CD20: CD20 antibody of which the CD20 arm of epcoritamab is derived”: in the data set with CD20, the “competition for CD20 binding” value was “compete for CD20 binding”.

As for `Cn1c(CCCC(=O)O)nc2cc(N(CCCl)CCCl)ccc21` [bendamustine, 4-[5-[Bis(2-chloroethyl)amino]-1-methyl-1H-benzo[d]imidazole-2-yl]butanoic acid], the “number of viable B cells” value in the data set on Raji cells and in the data set with SU-DHL-4 cells was “decreased the number of viable B cells in a dose dependent manner” each time.

Consider “Epcoritamab: IgG1 bispecific CD3xCD20 antibody, heavy/light chains SEQ ID NOs: 24, 25 and 26, 27; CAS 2134641-34-0”, for which the “epcoritamab-induced T-cell activation in presence of bendamustine” value in data set [1] (bendamustine 0-20 μM, 48 hours) is listed as “not affected by the presence of bendamustine at all concentrations tested”; in data set [4] (bendamustine 0-20 μM, 48 hours), “not affected by the presence of bendamustine at all concentrations tested”. Besides, the “upregulation of activation markers on CD4+ T cells in presence of bendamustine” value in data set [1] (setting [5]) and in data set [4] (setting [5]) was “not affected by bendamustine” in each case. Moreover, the “activation of CD8+ T cells (CD69, CD25, LAMP-1 upregulation)” value in data set [1] (setting [6]) and in data set [4] (setting [6]) was “induced concentration-dependent activation of CD8+ T cells” each time. Also, the T-cell-mediated cytotoxicity result in data set [2] is recorded as “induced T-cell-mediated cytotoxicity”. In addition, the tumor growth entry in data set [3] was “effectively reduce tumor growth”. In addition, the tolerability result in the data set with R/R B-NHL patients is “tolerated at doses up to at least 48 mg, including 60 mg”.

Turning to `CC[C@H](Nc1ncnc2[nH]cnc12)c1nc2cccc(F)c2c(=O)n1-c1ccccc1` [idelalisib], in the data set with follicular lymphoma, the “1-year PFS” value is given as 43% and the toxicities entry was “several toxicities leading to treatment discontinuation”.
